From ChEMBL document CHEMBL1201862, “PubChem BioAssay data set” (2004)
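Briefly, cells in 96-well plates were exposed to five compound concentrations for 48 h, and endpoints were estimated by linear interpolation. Here, GI50 denotes the concentration required for 50% inhibition of growth.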 Activity calls are given as the source filed them. Rule as the data show it: active = GI50 up to about 1.1 µM and inactive = higher.

Key:
Experiment in all cases: NCI anticancer screen, dose series, 48 h
[1] = tested on: 786-0
[2] = tested on: A498
[3] = tested on: A549
[4] = tested on: ACHN
[5] = tested on: CAKI-1
[6] = tested on: CCRF-CEM
[7] = tested on: COLO 205
[8] = tested on: DU-145
[9] = tested on: EKVX
[10] = tested on: HCC 2998
[11] = tested on: HCT-116
[12] = tested on: HCT-15
[13] = tested on: HL-60
[14] = tested on: HOP-62
[15] = tested on: HOP-92
[16] = tested on: HT-29
[17] = tested on: Hs-578T
[18] = tested on: IGROV-1
[19] = tested on: K562
[20] = tested on: KM12
[21] = tested on: LOX IMVI
[22] = tested on: M14
[23] = tested on: MCF7
[24] = tested on: MDA-MB-231
[25] = tested on: MDA-MB-435
[26] = tested on: MDA-N
[27] = tested on: MOLT-4
[28] = tested on: NCI-H226
[29] = tested on: NCI-H23
[30] = tested on: NCI-H460
[31] = tested on: NCI-H522
[32] = tested on: NCI/ADR-RES
[33] = tested on: OVCAR-3
[34] = tested on: OVCAR-4
[35] = tested on: OVCAR-5
[36] = tested on: OVCAR-8
[37] = tested on: PC-3
[38] = tested on: RPMI-8226
[39] = tested on: RXF 393
[40] = tested on: SF-268
[41] = tested on: SF-295
[42] = tested on: SF-539
[43] = tested on: SK-MEL-28
[44] = tested on: SK-MEL-2
[45] = tested on: SK-MEL-5
[46] = tested on: SK-OV-3
[47] = tested on: SN12C
[48] = tested on: SNB-19
[49] = tested on: SNB-75
[50] = tested on: SR
[51] = tested on: SW-620
[52] = tested on: T47D
[53] = tested on: TK-10
[54] = tested on: U-251
[55] = tested on: UACC-257
[56] = tested on: UACC-62

SMILES: O=C(CSc1nc2ccc(I)cc2c(=O)n1Cc1ccccc1)N/N=C/c1ccccc1
- GI50 [1]: 11.8 µM (inactive)
- GI50 [2]: 15.2 µM (inactive)
- GI50 [3]: 25.2 µM (inactive)
- GI50 [4]: 21.7 µM (inactive)
- GI50 [5]: 4.01 µM (inactive)
- GI50 [6]: 40.9 µM (inactive)
- GI50 [7]: > 100 µM (inactive)
- GI50 [8]: 39.3 µM (inactive)
- GI50 [9]: 26.6 µM (inactive)
- GI50 [10]: 67.1 µM (inactive)
- GI50 [11]: 33.9 µM (inactive)
- GI50 [12]: 22.1 µM
- GI50 [13]: > 100 µM (inactive)
- GI50 [14]: 6.82 µM (inactive)
- GI50 [15]: 11.5 µM (inactive)
- GI50 [16]: 47.6 µM (inactive)
- GI50 [17]: 1.01 µM (active)
- GI50 [18]: 14.8 µM (inactive)
- GI50 [19]: 29.6 µM (inactive)
- GI50 [20]: 48.8 µM (inactive)
- GI50 [21]: 41.7 µM (inactive)
- GI50 [22]: 43.3 µM (inactive)
- GI50 [23]: 25.2 µM (inactive)
- GI50 [24]: 8.2 µM (inactive)
- GI50 [25]: > 100 µM (inactive)
- GI50 [26]: > 100 µM (inactive)
- GI50 [27]: 58.1 µM (inactive)
- GI50 [28]: 29.9 µM (inactive)
- GI50 [29]: 17.5 µM (inactive)
- GI50 [30]: 27 µM (inactive)
- GI50 [31]: 18.1 µM (inactive)
- GI50 [32]: 23.8 µM (inactive)
- GI50 [33]: 11.6 µM (inactive)
- GI50 [34]: 34.2 µM (inactive)
- GI50 [35]: 57 µM (inactive)
- GI50 [36]: 17.9 µM (inactive)
- GI50 [37]: 10.3 µM (inactive)
- GI50 [38]: 82.4 µM (inactive)
- GI50 [39]: 8.13 µM (inactive)
- GI50 [40]: 10.6 µM (inactive)
- GI50 [41]: 11.4 µM (inactive)
- GI50 [42]: 26.9 µM (inactive)
- GI50 [43]: > 100 µM (inactive)
- GI50 [44]: 12 µM (inactive)
- GI50 [45]: 42.4 µM (inactive)
- GI50 [46]: 10.4 µM (inactive)
- GI50 [47]: 66.1 µM (inactive)
- GI50 [48]: 17.5 µM (inactive)
- GI50 [49]: 11.1 µM (inactive)
- GI50 [50]: 13.5 µM (inactive)
- GI50 [51]: > 100 µM (inactive)
- GI50 [52]: 23.1 µM (inactive)
- GI50 [53]: 15.2 µM (inactive)
- GI50 [54]: 11.4 µM (inactive)
- GI50 [55]: 26.3 µM (inactive)
- GI50 [56]: 39.2 µM (inactive)
